Assay results published in patent publication US6897199B2, “Pharmaceutically acceptable salts of phenoxazine and phenothiazine compounds” (Dr. Reddy's Laboratories Ltd., priority 2001, dated 2005).
Structures can show the parent of a compound that is named as a salt.

Legend:
hPPARα = target: T1, hPPARα (Homo sapiens, UniProt Q07869); conditions: compound concentration 50 μM; luciferase activity, HEK-293 cells
T1 sequence (Q07869 239-466 limits assumed): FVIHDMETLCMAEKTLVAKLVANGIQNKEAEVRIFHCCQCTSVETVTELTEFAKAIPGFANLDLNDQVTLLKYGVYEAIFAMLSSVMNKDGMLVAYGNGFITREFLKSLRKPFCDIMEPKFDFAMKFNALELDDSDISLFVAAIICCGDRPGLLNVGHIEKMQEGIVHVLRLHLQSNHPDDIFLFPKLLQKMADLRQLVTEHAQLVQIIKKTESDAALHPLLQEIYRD
Protocol: a) Determination of hPPARα Activity
Ligand binding domain of hPPARα was fused to DNA binding domain of Yeast transcription factor GAL4 in eucaryotic expression vector. Using superfect (Qiagen, Germany) as transfecting reagent HEK-293 cells were transfected with this plasmid and a reporter plasmid harboring the luciferase gene driven by a GAL4 specific promoter. Compound was added at different concentrations after 42 hrs of transfection and incubated overnight.

[1] = system: hypercholesterolemic rat models; assay: Plasma triglyceride and cholesterol lowering activity in hypercholesterolemic rat models; type: in vivo, Male Sprague Dawley rats; conditions: dose 10 mg/kg orally for 3 days
Protocol: b) Plasma triglyceride and Cholesterol Lowering Activity in Hypercholesterolemic Rat Models
Male Sprague Dawley rats (NIN stock) were bred in DRF animal house. Animals were maintained under 12 hour light and dark cycle at 25±1° C. Rats of 180-200 gram body weight range were used for the experiment. Animals are made hypercholesterolemic by feeding 2% cholesterol and 1% sodium cholate mixed with standard laboratory chow [National Institute of Nutrition (NIN), Hyderabad, India] for 6 days. Throughout the experimental period the animals are maintained on the same diet (Petit, D., Bonnefis, M. T., Rey, C and Infante, R. Effects of ciprofibrate on liver lipids and lipoprotein synthesis in normo- and hyperlipidemic rats. Atherosclerosis. 1988.74: 215-225).
The test compounds were administered orally at a dose 0.1 to 30 mg/kg/day for 3 days. Control group is treated with vehicle alone (0.25% Carboxymethylcellulose; dose 10 ml/kg).
The blood samples were collected in fed state 1 hour after drug administration on 0 and 3 day of compound treatment. The blood was collected from the retro-orbital sinus through heparinised capillary in EDTA containing tubes. After centrifugation, plasma sample is separated for total cholesterol, HDL and triglyceride estimations. Measurement of plasma triglyceride (TG), total cholesterol (TC) and HDL are done using commercial kits (Dr. Reddy's Laboratory, Diagnostic Division, India). LDL and VLDL cholesterol were calculated from the data obtained for total cholesterol, HDL and triglyceride. The reduction of various parameters examined are calculated according to the formula given below.
Formulae for Calculation: • 1. Percent reduction in Blood sugar/triglycerides/total cholesterol were calculated according to the formula: [formula] • OC=Zero day control group value • OT=Zero day treated group value • TC=Test day control group value • TT=Test day treated group value • 2. LDL and VLDL cholesterol levels were calculated according to the formula: [formula] VLDL cholesterol in mg/dl=[Total cholesterol−HDL cholesterol−LDL cholesterol]mg/dl.

| Molecule | PPARα (hPPARα) | LDL ([1]; LDL cholesterol calculated from TC, HDL and TG) | VLDL ([1]; VLDL cholesterol calculated from TC, HDL and TG) | HDL ([1]; plasma HDL) | TC ([1]; plasma total cholesterol, percent reduction by formula of b285) | TG ([1]; plasma triglyceride, percent reduction by formula of b285) |
| --- | --- | --- | --- | --- | --- | --- |
| (−)-3-[4-[2-(Phenoxazin-10-yl)ethoxy]phenyl]-2-ethoxypropanoic acid phenylglycinol salt [Example 12] | 3.7 | – | – | – | – | – |
| CCO[C@@H](Cc1ccc(OCCN2c3ccccc3Oc3ccccc32)cc1)C(=O)O [Example 3, (−)-3-[4-[2-(Phenoxazin-10-yl)ethoxy]phenyl]-2-ethoxypropanoic acid metformin salt] | – | 46 | 82 | 64 | 82 | 47 |
